Measured values taken from patent publication US9675580B2, “Method of treatment for enhancing exercise performance” (priority 2012, dated 2017).

What was measured:
ICR mice [1] = experiment: Treadmill run to exhaustion (endurance exercise capacity); assay type: in vivo, mouse; conditions: 50 mg/kg oral daily for two weeks, vs phosphate buffered saline control, p<0.0005, FIG. 1
Experimental: Ten 8-week-old ICR mice were purchased from KOATECH, precultured for 1 week, and then divided into two groups, each group having five mice. The first group was set up as a negative control by administering phosphate buffered saline, and to the second group, myricetin was orally administered daily at a concentration of 50 mg/kg for two weeks. To measure a change in endurance exercise capacity due to myricetin, the animals in the negative control and the myricetin-administered group were run on a treadmill (Panlab&Harvard, Spain). An exercise performance protocol was configured to make the mice run until exhaustion at 25 cm/sec for 20 minutes, 30 cm/sec for 20 minutes, 33 cm/sec for 20 minutes, 36 cm/sec for 20 minutes and 36 cm/sec for 15 minutes with a gradient of 5°, and 30 cm/sec for 15 minutes and 41 cm/sec with a gradient of 10°. To adapt the mice to running on the treadmill, the day before the experiment, they were run at 27 cm/sec for 10 minutes with a gradient of 5°. The mice were not fed for two hours before the running on the treadmill on the day of the experiment, and then the maximum exercise capacity of the experimental animals was measured after the running on the treadmill. […]

ICR-series mice = experiment: Grip strength test (maximum muscle strength); assay type: in vivo, mouse; conditions: 50 mg/kg oral daily for two weeks, vs negative control, p<0.005 / p<0.00005, FIGS. 2A and 2B
Experimental: To measure an effect of myricetin on enhancing endurance exercise capacity of a mouse, ten 8-week-old ICR-series mice having a body weight of 30±5 g were used. As described in Example 1, the experimental animals were divided into two groups. The first group was determined as a negative control, and to the second group, myricetin was orally administered daily at a concentration of 50 mg/kg for two weeks. To measure a change in the maximum strength of a muscle due to myricetin, a grip strength test (Bioseb, France) was performed on the animals in the control group and the myricetin-administered group. Maximum grip strengths of the front paws and rear paws were measured by pulling a tail of the mouse backward while the mouse grabbed a grip strength tester. The grip strength was measured three times, and an average value was used.

ICR mice [2] = experiment: Rotarod test (sensorimotor function); assay type: in vivo, mouse; conditions: 50 mg/kg oral daily for 2 weeks, 4 to 40 rpm, vs negative control, p<0.005, FIG. 3
Experimental: To confirm an effect of myricetin on a sensorimotor function of a mouse, 8-week-old ICR mice were purchased from KOATECH, precultured for 1 week, and divided into two groups, each group having 5 mice. As described in Example 1, the experimental animals were divided into two groups, and then the first group was determined as a negative control, and to the second group, myricetin was orally administered daily at a concentration of 50 mg/kg using a 1 ml syringe for 2 weeks.
To measure an effect of myricetin on the sensorimotor function, a rotarod test (Panlab&Harvard, Spain) was performed on the mice in the control group and the myricetin-administered group. The rotarod test was performed to measure motor coordination (exercise adaptation) and a sense of balance of the animal (Michel Pratte et al., Behavioural brain research 216:313-320, 2011; Medina R. et al., FEBS Lett. 180(1): 77-80, 1985).
A tail of the mouse was put on a rotarod, and a speed of the rotarod was increased from 4 to 40 rpm within 5 minutes by an increase of 4 rpm at 30-second intervals. The time during which the mouse stayed on the rotarod was measured. The experiment was repeated five times, and the time during which the mouse stayed the longest on the rotarod was used as a result value.

SIRT-1 gene = experiment: Real time PCR gene expression in mouse myotube: SIRT-1; assay type: cell-based; conditions: C2C12 myotubes, 10, 30 and 100 μM, 16 hours, corrected with β-actin, FIG. 4D
Experimental: (§1) Mouse myoblasts were purchased from the Korean Cell Line Bank (KCLB), and base sequences of primers for β-actin, SIRT-1, PGC-1α, NRF-1 and PPAR-δ genes were as follows:
(§2) 1×10^7 C2C12 (mouse myoblasts) differentiated into myotubes using 2% horse serum […]. The mouse myotube was treated with myricetin by concentration and cultured for 16 hours, RNA was extracted from the myotube using TRizol, and then cDNA was synthesized through reverse transcription PCR (RT-PCR).
(§3) Real time PCR was performed using β-actin as a control and the primers for respective genes (95° C. for 3 minutes, <95° C. for 10 seconds, 60° C. for 10 seconds, 72° C. for 30 seconds>−39 cycles, 95° C. for 10 seconds, 65° C. for 5 seconds). The PGC-1α, NRF-1, PPAR-δ, and SIRT-1 were corrected with the β-actin, and the resulting value was obtained.

PGC-1α gene = experiment: Real time PCR gene expression in mouse myotube: PGC-1α; assay type: cell-based; conditions: C2C12 myotubes, 10, 30 and 100 μM, 16 hours, corrected with β-actin, FIG. 4A
Experimental: as §1, §2, §3

NRF-1 gene = experiment: Real time PCR gene expression in mouse myotube: NRF-1; assay type: cell-based; conditions: C2C12 myotubes, 10, 30 and 100 μM, 16 hours, corrected with β-actin, FIG. 4B
Experimental: as §1, §2, §3

PPAR-δ gene = experiment: Real time PCR gene expression in mouse myotube: PPAR-δ; assay type: cell-based; conditions: C2C12 myotubes, 10, 30 and 100 μM, 16 hours, corrected with β-actin, FIG. 4C
Experimental: as §1, §2, §3

[3] = Change in body weight of SD rats; assay type: in vivo, rat; conditions: 50 mg/kg for 5 days, 225 g before administration, control group 285 g, FIG. 5A
Experimental: 7-week-old SD rats were purchased from KOATECH, precultured for 1 week, and randomly divided into two groups, each group having 5 rats. First, 50 mg/kg of myricetin was administered into the test group, and phosphate buffered saline was administered into the control group for 5 days. A change in body weight was measured using an electric measure (CAS, China). Before administration, the body weights of the rats in each group were the same as 225 g on average, but after the end of the experiment, the body weights of the rats in the control group were 285 g on average, and the body weights of the rats in the myricetin-administered group were 275 g on average (FIG. 5A).

[4] = Daily food intake of SD rats (action metabolism meter); assay type: in vivo, rat; conditions: 50 mg/kg for 5 days, FIG. 5B
Experimental: 7-week-old SD rats were purchased from KOATECH, precultured for 1 week, and randomly divided into two groups, each group having 5 rats. First, 50 mg/kg of myricetin was administered into the test group, and phosphate buffered saline was administered into the control group for 5 days. The investigation of food intake was performed by automatically measuring the daily food intake of the phosphate buffered saline-administered mouse and the myricetin-administered mouse using an action metabolism meter (Panlab&Harvard, Spain). The average food intake was determined as an average food intake of each of the five rats in one group.

O=c1c(O)c(-c2cc(O)c(O)c(O)c2)oc2cc(O)cc(O)c12 [myricetin, 3,5,7-trihydroxy-2-(3,4,5-trihydroxyphenyl)-4-chromenone]
time run on the treadmill until exhaustion (maximum exercise capacity) (ICR mice [1]): longer
maximum grip strength of front paws and rear paws (maximum muscle strength) (ICR-series mice): increased
time during which the mouse stayed on the rotarod (ICR mice [2]): longer
expression of SIRT-1 compared to the control group (SIRT-1 gene): increased two to three times
expression of PGC-1α compared to the control group (PGC-1α gene): increased two to three times
expression of NRF-1 compared to the control group (NRF-1 gene): increased two to three times
expression of PPAR-δ compared to the control group (PPAR-δ gene): increased two to three times
body weight on average after the end of the experiment [3]: 275 g
average daily food intake vs phosphate buffered saline-administered group [4]: smaller
